In patent publication US8309522B2, “Neuromedin and FN-38 peptides for treating psychiatric diseases” (Amylin Pharmaceuticals, LLC, priority 2007, dated 2012):
Ends that are not written are not given here.

How the values were obtained:
mice [1] = assay: Stress-induced hyperthermia (SIH) assay; type: in vivo; conditions: 60 minutes before the assay, FIG. 1
Protocol: (§1) Animal behavior assays were performed to test for anxiolytic and antipsychotic effects of FN-38 (SEQ ID NO:5) administration. […] These specific behavioral tests are known to be sensitive to anxiolytic or antipsychotic drugs. For these assays, FN-38 was administered to mice at doses ranging from 0.1 to 10 mg/kg, intraperitoneally, and their performance in the assay was assessed.
Body temperature and emotionality are correlated in humans and stress commonly induces an increase in body temperature (hyperthermic response) in rodents. The thermic response to stress is commonly used as an indication of enhanced emotionality or anxiety in rodents and stress-induced hyperthermia (SIH) in mice is considered to have predictive validity for certain human anxiety/stress disorders. The SIH assay assesses the effect of anxiolytics or test agents on SIH and measures the intrinsic effects of these drugs on core body temperature of the animal. See, for example, Zethof et al., 1994, Physiol. Behav. 55:109-115. Anxiolytics blunt the increase in body temperature, or hyperthermic response, following stress exposure. Buspirone is a partial 5-HT1A agonist and a known anxiolytic agent. […] The stress from the first measurement induces hyperthermia which was measured by the second temperature measurement. […]

mice [2] = assay: Prepulse inhibition (PPI) test; type: in vivo; conditions: 78 and 82 dB prepulse, FIG. 4
Protocol: as §1
The prepulse inhibition (PPI) test measures the reflex response to externally applied auditory stimulation (acoustic startle response) and is related to the deficiency in sensory-motor gating capacity seen in schizophrenia. The acoustic startle reflex is a very basic response to strong exteroceptive stimuli and is widely used to assess sensorimotor reactivity in animals and humans. A weak auditory stimulus (prepulse, 74-82 dB) given prior to the strong acoustic stimulus (120 dB) blunts the startle response. This blunting of the startle response is referred to as prepulse inhibition. See, for example, Conti et al., 2005, Behavioral Neuroscience 119:1052-1060. […]
Mice were injected with the test agent (FN-38 (SEQ ID NO:5) at 0.1, 1.0 or 10 mg/kg, or vehicle (water)) […] to the test or with haloperidol at 1 mg/kg or vehicle (10% DMSO) 30 minutes prior to the test. […] The amount of the animal's “reaction” to the strong stimulus was recorded. […]

mice [3] = assay: Marble burying; type: in vivo; conditions: FN-38 10 mg/kg intraperitoneally, 15-30 minutes prior to the test; statistically significant; FIG. 2
Protocol: as §1
Marble burying is used as a model for both anxiety and obsessive-compulsive disorder. See, for example, Chaki et al., 2003, J. Pharmacol. Exp. Ther. 304:818-826. Anxiolytics suppress marble burying activity. Benzodiazepine chlordiazepoxide (CDP) is a known anxiolytic agent. Mice were injected with the test agent (FN-38 (SEQ ID NO:5) at 0.1, 1.0 or 10 mg/kg, 15 mg/kg CDP, or vehicle (water)) 15-30 minutes prior to the test. Mice were then placed individually in clean cages containing 5-cm of hard wood bedding and 20 marbles spaced evenly in rows of five. The number of marbles buried in 30 minutes was recorded. Results of this assay are shown in FIG. 2 where * is P<0.05 vs. vehicle control. […] These reductions in marble burying were statistically significant.

mice [4] = assay: Phencyclidine (PCP)-induced locomotion test; type: in vivo; conditions: FN-38 10 mg/kg, 15-30 minutes prior to 5 mg/kg PCP; activity recorded for 60 minutes; FIG. 3
Protocol: as §1
The PCP-induced locomotion test is used with open field activity chambers and measures locomotion, rearing, and stereotypic activity under amphetamine/PCP-induced conditions. The test has predictive validity for some antipsychotic drugs that normalize the hyperactivity and stereotypic behavior seen with amphetamine and PCP. See, for example, Williams et al., 2006, Prog. Neuropsychopharmacol. Biol. Psychiatry, 30:239-243. Mice were injected with the test agent (FN-38 (SEQ ID NO:5) at 0.1, 1.0 or 10 mg/kg, or vehicle (water)) 15-30 minutes prior injection with 5 mg/kg PCP. The animals were then placed in the center of an open field and activity was recorded for 60 minutes.

rats = conditions: central administration to rats; cited from earlier work

Compound: O=C1CC2(CCCC2)CC(=O)N1CCCCN1CCN(c2ncccn2)CC1 [buspirone, reference compound]
- stress-induced hyperthermia (Delta Temperature) (mice [1]; 15 mg/kg buspirone, positive control): blunted the SIH response

Compound: O=C(CCCN1CCC(O)(c2ccc(Cl)cc2)CC1)c1ccc(F)cc1 [halperidol, haloperidol, reference compound]
- percent of prepulse inhibition (mice [2]; haloperidol at 1 mg/kg, 30 minutes prior to the test, positive control): increased the percent of prepulse inhibition

Compound: FLFHYSKTQKLGKSNVVEELQSPFASQSRGYFLFRPRN (FLFHYSKTQKLGKSNVVEELQSPFASQSRGYFLFRPRN-NH2; listed as Homo sapiens) [FN-38]
- number of marbles buried in 30 minutes (mice [3]): reduced the number of marbles buried
- stress-induced hyperthermia (Delta Temperature) (mice [1]; FN-38 10 mg/kg intraperitoneally, P<0.05 vs. vehicle control): blunted the SIH response
- PCP-induced hyper-locomotion (total distance traveled: total, central, and peripheral) (mice [4]): significantly reduced this hyper-locomotion response
- percent of prepulse inhibition (mice [2]; FN-38 10 mg/kg, 120 dB stimulus): increased the percent of prepulse inhibition

Compound: neuromedin U (YKVNEYQGPVAPSGGFFLFRPRN-NH2; UniProt P12760 144-166, looked up) [NMU, neuromedin U, centrally administered to rats in cited literature]
- food intake (rats): inhibited food intake
